Measurements published in the NIST ThermoML archive (doi:10.1016/j.jct.2007.04.004).

How the values were obtained:
[1] = Liquid; for mass density: 101.33 kPa, Pycnometric method; for Normal boiling temperature: Ebulliometric method (Recirculating still)
[2] = excess molar enthalpy (molar enthalpy of mixing); xn = mol fraction of the nth substance listed; settings: 298.15 K, 101 kPa, Liquid

O=C1CCCCC1 [cyclohexanone]
[1]
Settings	mass density [kg/m3]	vapor or sublimation pressure [kPa]
303.15 K	937.58	–
426.3 K	–	95.3

Settings	Normal boiling temperature [°C]
[1]	155.69

CCC(C)=O [butanone]
[1]
Settings	mass density [kg/m3]	vapor or sublimation pressure [kPa]
298.15 K	799.71	–
350.9 K	–	95.3

Settings	Normal boiling temperature [°C]
[1]	79.54

CC(=O)CC(C)C [4-methylpentan-2-one] + C[S+](C)[O-]
[2]
Settings	excess molar enthalpy [kcal/mol]
x1 = 0.0387	0.0314
x1 = 0.0839	0.0636
x1 = 0.1332	0.0937
x1 = 0.1874	0.113
x1 = 0.2391	0.131
x1 = 0.2901	0.143
x1 = 0.3377	0.158
x1 = 0.3804	0.167
x1 = 0.4029	0.172
x1 = 0.4617	0.17
x1 = 0.5304	0.164
x1 = 0.6116	0.144
x1 = 0.6917	0.114
x1 = 0.7918	0.0687
x1 = 0.837	0.0539
x1 = 0.9237	0.0255

O=C1CCCCC1 [cyclohexanone] + C[S+](C)[O-]
[2]
Settings	excess molar enthalpy [kcal/mol]
x1 = 0.0386	0.0249
x1 = 0.0873	0.0566
x1 = 0.1405	0.0601
x1 = 0.1917	0.105
x1 = 0.2431	0.121
x1 = 0.3037	0.135
x1 = 0.3596	0.152
x1 = 0.4115	0.161
x1 = 0.5044	0.165
x1 = 0.5686	0.158
x1 = 0.6399	0.147
x1 = 0.7238	0.126
x1 = 0.8119	0.0913
x1 = 0.9101	0.048

C[S+](C)[O-] [dimethyl sulfoxide]
[1]
Settings	mass density [kg/m3]	vapor or sublimation pressure [kPa]
298.15 K	1095.37	–
461 K	–	95.3

Settings	Normal boiling temperature [°C]
[1]	189.04

CC(=O)CC(C)C [4-methylpentan-2-one]
[1]
Settings	mass density [kg/m3]	vapor or sublimation pressure [kPa]
298.15 K	796.33	–
386.7 K	–	95.3

Settings	Normal boiling temperature [°C]
[1]	117.39

CCC(C)=O [butanone] + C[S+](C)[O-]
[2]
Settings	excess molar enthalpy [kcal/mol]
x1 = 0.054	0.0179
x1 = 0.1094	0.0357
x1 = 0.1725	0.0509
x1 = 0.2385	0.0621
x1 = 0.2956	0.0729
x1 = 0.3507	0.0832
x1 = 0.4007	0.0891
x1 = 0.4448	0.0936
x1 = 0.4881	0.0944
x1 = 0.5787	0.0966
x1 = 0.6433	0.0864
x1 = 0.7077	0.0737
x1 = 0.7797	0.0581
x1 = 0.856	0.0356
x1 = 0.9297	0.0135
